Experimental data from US20040142981A1, “Antibacterial benzoic acid derivatives” (priority 2002, published 2004).
≈ marks a conversion by molar mass, not a printed value.

Tests used:
SAUR 9218 = assay: MIC by standard agar dilution method; type: cell-based; details: Mueller Hinton agar, incubated overnight at 35° C., lowest concentration that inhibits visible growth
Description: MIC Test Method The in vitro MICs of test compounds were determined by a standard agar dilution method. A stock drug solution of each analog was prepared in the preferred solvent, usually DMSO:H2O (1:3). Serial 2-fold dilutions of each sample are made using 1.0 ml aliquots of sterile distilled water. To each 1.0 ml aliquot of drug was added 9 ml of molten Mueller Hinton agar medium. The drug-supplemented agar was mixed, poured into 15×100 mm petri dishes, and allowed to solidify and dry prior to inoculation. Vials of each of the test organisms are maintained frozen in the vapor phase of a liquid nitrogen freezer. Test cultures are grown overnight at 35° C. on the medium appropriate for the organism. Colonies are harvested with a sterile swab, and cell suspensions are prepared in Trypticase Soy broth (TSB) to equal the turbidity of a 0.5 McFarland standard. A 1:20 dilution of each suspension was made in TSB. The plates containing the drug supplemented agar are inoculated with a 0.001 ml drop of the cell suspension using a Steers replicator, yielding approximately 10^4 to 10^5 cells per spot. The plates are incubated overnight at 35° C. Following incubation the Minimum Inhibitory Concentration (MIC μg/ml), the lowest concentration of drug that inhibits visible growth of the organism, was read and recorded.

SMILES | MIC (SAUR 9218) [µg/mL] | melting point [°C]
O=C(Nc1ccc(Br)cc1C1=Nc2ccccc2S(=O)(=O)N1)c1cccc(S(=O)(=O)N2CCc3cc(Cl)ccc32)c1 [Example 14, N-[4-Bromo-2-(1,1-dioxido-2H-1,2,4-benzothiadiazin-3-yl)phenyl]-3-[(5-chloro-2,3-dihydro-1H-indol-1-yl)sulfonyl]benzamide] | 64 (≈ 95.2 µM) | –
O=C(Nc1ccc(Br)cc1-c1n[nH]c(=O)o1)c1ccc(S(=O)(=O)N2CCc3cc(Cl)ccc32)cc1 [N-[4-bromo-2-(5-oxo-4,5-dihydro-1,3,4-oxadiazol-2-yl)phenyl]-4-[(5-chloro-2,3-dihydro-1H-indol-1-yl)sulfonyl]benzamide] | > 128 | –
N#Cc1ccc(NC(=O)c2cccc(S(=O)(=O)N3CCOCC3)c2)c(-c2n[nH]c(=O)o2)c1 [Example 18, N-[4-cyano-2-(5-oxo-4,5-dihydro-1,3,4-oxadiazol-2-yl)phenyl]-3-(morpholin-4-ylsulfonyl)benzamide] | > 128 | 283 to 285
CN(c1ccc(Cl)cc1)S(=O)(=O)c1ccc(C(=O)Nc2ccc(Br)cc2-c2noc(=S)[nH]2)cc1 [N-[4-bromo-2-(5-thioxo-4,5-dihydro-1,2,4-oxadiazol-3-yl)phenyl]-4-{[4-chloro(methyl)anilino]sulfonyl}benzamide] | 16 (≈ 27.6 µM) | –
O=C(Nc1ccc(Br)cc1C1=Nc2ccccc2S(=O)(=O)N1)c1cccc(S(=O)(=O)N2CCOCC2)c1 [Example 11, N-[4-Bromo-2-(1,1-dioxido-2H-1,2,4-benzothiadiazin-3-yl)phenyl]-3-(morpholin-4-ylsulfonyl)benzamide] | 16 (≈ 26.4 µM) | –
O=C(Nc1ccc(Br)cc1-c1noc(=O)[nH]1)c1ccc(S(=O)(=O)N2CCc3cc(Cl)ccc32)cc1 [N-[4-bromo-2-(5-oxo-4,5-dihydro-1,2,4-oxadiazol-3-yl)phenyl]-4-[(5-chloro-2,3-dihydro-1H-indol-1-yl)sulfonyl]benzamide] | 8 (≈ 13.9 µM) | –
O=C(Nc1ccc(Br)cc1-c1noc(=O)[nH]1)c1cccc(S(=O)(=O)N2CCOCC2)c1 [Example 19, N-[4-bromo-2-(5-oxo-4,5-dihydro-1,2,4-oxadiazol-3-yl)phenyl]-3-(morpholin-4-ylsulfonyl)benzamide] | 128 (≈ 251 µM) | 220 to 223
CN(c1ccc(Cl)cc1)S(=O)(=O)c1ccc(C(=O)Nc2ccc(Br)cc2-c2nnn[nH]2)s1 [Example 29, N-[4-Bromo-2-(1H-tetraazol-5-yl)phenyl]-5-{[(4-chlorophenyl)(methyl)amino]sulfonyl}thiophene-2-carboxamide] | 8 (≈ 14.4 µM) | –
CN(c1ccc(Cl)cc1)S(=O)(=O)c1csc(C(=O)Nc2ccc(Br)cc2-c2nnn[nH]2)c1 [Example 28, N-[4-Bromo-2-(1H-tetraazol-5-yl)phenyl]-4-{[(4-chlorophenyl)(methyl)amino]sulfonyl}thiophene-2-carboxamide] | 16 (≈ 28.9 µM) | –
CC(C)Sc1ccc(C(=O)Nc2ccc(Br)cc2-c2noc(=O)[nH]2)cn1 [Example 31, N-[4-bromo-2-(5-oxo-4,5-dihydro-1,2,4-oxadiazol-3-yl)phenyl]-6-(isopropylthio)nicotinamide] | 8 (≈ 18.4 µM) | –
CN(c1ccc(Cl)cc1)S(=O)(=O)c1ccc(C(=O)Nc2ccc(Br)cc2-c2noc(=O)[nH]2)cc1 [Example 6, N-[4-Bromo-2-(5-oxo-4,5-dihydro-1,2,4-oxadiazol-3-yl)phenyl]-4-{[(4-chlorophenyl)(methyl)amino]sulfonyl}benzamide] | 16 (≈ 28.4 µM) | –
O=C(Nc1ccc(Br)cc1-c1noc(=O)[nH]1)c1ccc(S(=O)(=O)N2CCc3ccccc32)cc1 [Example 7, N-[4-Bromo-2-(5-oxo-4,5-dihydro-1,2,4-oxadiazol-3-yl)phenyl]-4-(2,3-dihydro-1H-indol-1-ylsulfonyl)benzamide] | 16 (≈ 29.6 µM) | –
CN(c1ccc(Cl)cc1)S(=O)(=O)c1cccc(C(=O)Nc2ccc(Br)cc2-c2noc(=O)[nH]2)c1 [Example 9, N-[4-Bromo-2-(5-oxo-4,5-dihydro-1,2,4-oxadiazol-3-yl)phenyl]-3-{[(4-chlorophenyl)(methyl)amino]sulfonyl}benzamide] | 16 (≈ 28.4 µM) | –
COc1cccc(C(=O)Nc2ccc(Br)cc2-c2nnn[nH]2)c1 [N-[4-bromo-2-(1H-tetraazol-5-yl)phenyl]-3-methoxybenzamide] | 64 (≈ 171 µM) | –
CN(c1ccc(Cl)cc1)S(=O)(=O)c1coc(C(=O)Nc2ccc(Br)cc2-c2nnn[nH]2)c1 [Example 27] | 16 (≈ 29.8 µM) | –
O=C(Nc1ccc(Br)cc1-c1noc(=O)[nH]1)c1cccc(OCc2ccccc2)c1 [Example 10, 3-(Benzyloxy)-N-[4-bromo-2-(5-oxo-4,5-dihydro-1,2,4-oxadiazol-3-yl)phenyl]benzamide] | 8 (≈ 17.2 µM) | –
CN(c1ccc(Cl)cc1)S(=O)(=O)c1ccc(C(=O)Nc2ccc(Br)cc2NS(=O)(=O)C(F)(F)F)cc1 | 32 (≈ 51 µM) | –
CN(c1ccc(Cl)cc1)S(=O)(=O)c1ccc(C(=O)Nc2ccc(Br)cc2-c2nnn[nH]2)cc1 [Example 5, N-[4-Bromo-2-(1H-tetraazol-5-yl)phenyl]-4-{[(4-chlorophenyl)(methyl)amino]sulfonyl}benzamide] | 16 (≈ 29.2 µM) | –
N#Cc1ccc(NC(=O)c2cccc(S(=O)(=O)N3CCc4cc(Cl)ccc43)c2)c(C(=O)Nc2nccs2)c1 [Example 26, 2-({3-[(5-Chloro-2,3-dihydro-1H-indol-1-yl)sulfonyl]benzoyl}amino)-5-cyano-N-(1,3-thiazol-2-yl)benzamide] | 8 (≈ 14.2 µM) | –
CC(C)Oc1cccc(C(=O)Nc2ccc(Br)cc2-c2noc(=O)[nH]2)c1 [Example 15, N-[4-Bromo-2-(5-oxo-4,5-dihydro-1,2,4-oxadiazol-3-yl)phenyl]-3-isopropoxybenzamide] | 32 (≈ 76.5 µM) | –

Other lines, results leading:

MIC (SAUR 9218) [µg/mL] | melting point [°C] | SMILES
4 (≈ 6.95 µM) | – | O=C(Nc1ccc(Br)cc1-c1noc(=O)[nH]1)c1cccc(S(=O)(=O)N2CCc3cc(Cl)ccc32)c1 [Example 1, N-[4-Bromo-2-(5-oxo-4,5-dihydro-1,2,4-oxadiazol-3-yl)phenyl]-3-[(5-chloro-2,3-dihydro-1H-indol-1-yl)sulfonyl]benzamide]
0.5 (≈ 0.877 µM) | – | O=C(Nc1ccc(I)cc1-c1nnn[nH]1)c1cc2cccc(S(=O)(=O)c3ccccc3)c2[nH]1 [Example 24, N-[4-iodo-2-(1H-tetraazol-5-yl)phenyl]-7-(phenylsulfonyl)-1H-indole-2-carboxamide]
0.125 (≈ 0.266 µM) | 293 to 295 | N#Cc1ccc(NC(=O)c2cc3cccc(S(=O)(=O)c4ccccc4)c3[nH]2)c(-c2nnn[nH]2)c1 [Example 25, N-[4-cyano-2-(1H-tetraazol-5-yl)phenyl]-7-(phenylsulfonyl)-1H-indole-2-carboxamide]
4 (≈ 7.02 µM) | – | O=C(Nc1ccc(Br)cc1-c1nc2ccccc2c(=O)[nH]1)c1cccc(S(=O)(=O)N2CCOCC2)c1 [Example 13, N-[4-Bromo-2-(4-oxo-3,4-dihydroquinazolin-2-yl)phenyl]-3-(morpholin-4-ylsulfonyl)benzamide]
8 (≈ 16.6 µM) | – | O=C(Nc1ccc(Br)cc1-c1noc(=O)[nH]1)c1cccc(SCc2ccccc2)c1 [Example 2, 3-(Benzylthio)-N-[4-bromo-2-(5-oxo-4,5-dihydro-1,2,4-oxadiazol-3-yl)phenyl]benzamide]
8 (≈ 11.8 µM) | – | Cc1ccc(S(=O)(=O)NC(=O)c2cc(Br)ccc2NC(=O)c2cccc(S(=O)(=O)N(C)c3ccc(Cl)cc3)c2)cc1 [Example 4, N-[4-Bromo-2-({[(4-methylphenyl)sulfonyl]amino}carbonyl)phenyl]-3-{[(4-chlorophenyl)(methyl)amino]sulfonyl}benzamide]
4 (≈ 6.9 µM) | – | CN(c1ccc(Cl)cc1)S(=O)(=O)c1ccc(C(=O)Nc2ccc(Br)cc2-c2n[nH]c(=S)o2)cc1 [Example 8, N-[4-Bromo-2-(5-thioxo-4,5-dihydro-1,3,4-oxadiazol-2-yl)phenyl]-4-{[(4-chlorophenyl)(methyl)amino]sulfonyl}benzamide]
2 (≈ 3.33 µM) | – | CN(c1ccc(Cl)cc1)S(=O)(=O)c1cccc(C(=O)Nc2ccc(Br)cc2C(=O)NS(C)(=O)=O)c1 [Example 3, N-(4-Bromo-2-{[(methylsulfonyl)amino]carbonyl}phenyl)-3-{[(4-chlorophenyl)(methyl)amino]sulfonyl}benzamide]
4 (≈ 7.14 µM) | – | O=C(Nc1ccc(Br)cc1-c1nnn[nH]1)c1ccc(S(=O)(=O)N2CCc3cc(Cl)ccc32)cc1 [N-[4-bromo-2-(1H-1,2,3,4-tetraazol-5-yl)phenyl]-4-[(5-chloro-2,3-dihydro-1H-indol-1-yl)sulfonyl]benzamide]
2 (≈ 3.55 µM) | – | CN(c1ccc(Cl)cc1)S(=O)(=O)c1ccc(C(=O)Nc2ccc(Br)cc2-c2n[nH]c(=O)o2)cc1 [N-[4-bromo-2-(5-oxo-4,5-dihydro-1,3,4-oxadiazol-2-yl)phenyl]-4-{[4-chloro(methyl)anilino]sulfonyl}benzamide]
2 (≈ 3.81 µM) | – | O=C(Nc1ccc(Br)cc1-c1nnn[nH]1)c1ccc(S(=O)(=O)N2CCc3ccccc32)cc1 [N-[4-bromo-2-(1H-1,2,3,4-tetraazol-5-yl)phenyl]-4-(2,3-dihydro-1H-indol-1-ylsulfonyl)benzamide]
4 (≈ 6.29 µM) | – | O=C(Nc1ccc(Br)cc1-c1nc2ccccc2c(=O)[nH]1)c1cccc(S(=O)(=O)N2CCc3cc(Cl)ccc32)c1 [Example 12, N-[4-Bromo-2-(4-oxo-3,4-dihydroquinazolin-2-yl)phenyl]-3-[(5-chloro-2,3-dihydro-1H-indol-1-yl)sulfonyl]benzamide]
